How the values were obtained:
cathepsin B = molecular target: T1, cathepsin B (Homo sapiens, UniProt P07858); assay: Cathepsin B activity assay in treated HeLa cells; format: cell-based; conditions: 24 h, concentration-dependent, HeLa wt
T1 construct: host or cells: HeLa wt cells
Excerpt: Antibodies against β-actin (Sigma-Aldrich, St. Louis, MO, USA, #A5316, clone AC-74, 1:5000), B4GALT1 (Sigma-Aldrich, St. Louis, MO, USA, #HPA010807, 1:200), GAPDH (abcam, Cambridge, UK, #ab8245, 1:5000), GRASP55 (Proteintech, Chicago, IL, USA, #10,598–1-AP, 1:200 for IF and 1:2000 for WB), LAMP1 (Sigma-Aldrich, St. Louis, MO, USA, #L1418, 1:200), LC3B (MBL, Woburn, MA, USA, #M-152–3, 1:200 for IF and Cell Signalling Technology, Danvers, MA, USA, #2775, 1:1000 for WB), SQSTM1 (PROGEN, Heidelberg, Germany, #GP62-C, 1:1000) and TGN46 (Bio-Rad, Hercules, CA, USA, #AHP500GT, 1:200) were used. For WB, IRDye 800- or IRDye 680-conjugated secondary antibodies were purchased from LI-COR Biosciences (Lincoln, NE, USA, #926–68,077, #926–32,211 and #926–32,210). […] The cathepsin activity of treated HeLa cells was quantified using the fluorimetric Cathepsin B Activity Assay Kit (abcam, Cambridge, UK, #ab65300) according to the manufacturer´s instructions and measured with a microplate reader (SynergyMx, BioTek, Winooski, VT, USA).

HeLa GRASP55 KO cells = assay: Secretome analysis by data-independent mass spectrometry; format: cell-based; conditions: 100 nM, 24 h, serum-free, not apparent in wt
Description: For the preparation of secretomes, 2*10^5 HeLa wt or HeLa GRASP55 KO cells per well were seeded in a 6-well plate (n = 5 replicates for 4 different groups). […] After incubation, the medium was collected, centrifuged at 1,000 × g and 4 °C for 10 min and filtered through a 0.2 µm Acrodisc syringe filter (VWR, Radnor, PA, USA, #514–4131). After adding protease inhibitor cocktail (Roche, Basel, Switzerland, #5,892,791,001), the samples were snap frozen in liquid nitrogen and stored at -80 °C. Proteins were prepared for mass spectrometric analysis by a modified single-pot, solid-phase-enhance sample preparation (SP3) method. […] Finally, the sample was reconstituted in 0.1% trifluoroacetic acid and half of the sample analyzed by mass spectrometry. […]
Only proteins identified with at least two different peptides and 4 valid intensity values (MaxLFQ) in at least one experimental group were considered for further analysis. […] Annotation dependent significant abundance changes of protein groups were analysed using 1D and 2D annotation enrichment and respective differences visualized with split-violin plots with OriginPro 2020b.

CCCCCC1=C/C(=C/c2[nH]c(-c3ccc[nH]3)cc2OC)N=C1C [Prodigiosin, prodigiosin]
cathepsin B activity (cathepsin B): significantly reduced | abundance of signal peptide (SP) proteins in the secretome (HeLa GRASP55 KO cells): higher abundances

— article PMC10552397 (Cell Communication and Signaling : CCS, 2023)
